Two compounds from patent US11370822B2, “Self-assembling peptide for activating human mast cells” (The Governors of the University of Alberta, priority 2017, dated 2022) can be followed below.

Read-outs that look alike come from different tables or passages of the source.

Data set [1] concerns LAD2 cells. As to the kind of experiment: Cell viability analysis using XTT assay. (In general: Tetrazolium assays rely on reduction of a dye to a coloured formazan, in cell work by metabolically active cells.)
Procedure: (§1) LAD2 cells were suspended in culture medium (50 μl, 1.0×10^6 cells/ml) and placed on top of 50 μl of hydrogel matrix or culture medium solution. After an 4 h or 24 h incubation, cell viability was measured using a 2,3-bis-(2-methoxy-4-nitro-5-sulfophenyl)-2H-tetrazolium-5-carboxanilide (XTT) proliferation kit (Roche Molecular Biochemicals, Indianapolis, Ind., USA), according to the manufacturer's supplied instructions. To facilitate a uniform distribution of color throughout the hydrogel matrix, 50 μl of DMSO was added into each well prior to analysis.
For data set [2], the system named is LAD2 cells. As to the kind of experiment: β-hex release assay, co-culture with well insert (0.2 μm pore size filter). In kind it is cell-based, human. The settings on record: 30 min. Here is the method: To evaluate the immobilization effect of (RADA)4-GG-(PAMP-12) (SEQ ID NO: 2) in the matrices. As shown in FIG. 6 (A), 0.25×10^5 LAD2 cells in 100 μl HEPES buffer (10 mM, with 0.4% BSA, pH 7.4) were co-incubated with well inserts that contain 50 μl of self-assembling matrix (20% and 100% w/w of (RADA)4-GG-(PAMP-12) (SEQ ID NO: 2)) or PAMP-12 (SEQ ID NO: 3) solution in HEPES buffer (10 mM, with 0.4% BSA, pH 7.4) with the corresponding concentration (0.29 and 1.46 mM respectively). After 30 min incubation, inserts were removed, and the β-hex release was measured as described.

Data set [3] has as its system LAD2 cells.
Procedure: as §1
The subject of another data set is TPSAB1 (tryptase) mRNA. As to the kind of experiment: In vitro activation of mast cells in human skin, ddPCR for TPSAB1 expression. The settings on record: human skin without epidermis (NSE), 4 h; 10 μM PAMP-12, pure (RADA)4 matrix or matrix with 20% w/w (RADA)4-GG-(PAMP-12); NS average taken as 100. An excerpt: Human skin was harvested from abdominoplasty surgical discard specimens obtained following written informed consent as approved by the University of Alberta research ethics board. All tissue was from healthy non-smokers in their 30s. Human skin was separated from the underlying adipose tissue using a 15 blade scalpel. The epidermis was then removed using a […] dermatome (Integra LifeSciences Corporation, Cincinnati, Ohio) set to 0.25 mm thickness. The deepithelialized dermis was then divided into multiple pieces 1 cm^2 using sharp surgical scissors. Control or active hydrogel matrix (100 μl) was then layered onto the exposed surface of the dermis. […] For some groups, PBS and PAMP-12 PBS solution were used as negative and positive control. Following this, tissue pieces were removed and snap frozen in liquid nitrogen and stored at -80° C. until further processing. […] To obtain the absolute quantity of TPSAB1 transcripts, ddPCR (QX100, Bio-Rad, Hercules, Calif.) was employed using 5 ng of each cDNA sample and ddPCR supermix for the specific probes (Bio-Rad) according to manufacturer's protocols. […] QuantaSoft Software (Bio-Rad) was employed to analyze ddPCR results, and the absolute concentration of TPSAB1 transcripts in each sample determined by ddPCR was divided by the ACTB transcripts and presented as percentage based on normal skin samples (NS average taken as 100).

Data set [4] has as its system LAD2 cells. As to the kind of experiment: β-hexosaminidase (β-hex) release assay, peptide solutions. It is filed as cell-based, human. The conditions noted are these: 30 min. The method, then: LAD2 (Laboratory of Allergic Diseases 2) human mast cells were incubated in StemPro-34 SFM medium (Life Technologies, Rockville, Md.) supplemented with 2 mM L-glutamine, 100 I/ml penicillin, 50 μg/ml streptomycin, 100 ng/ml recombinant human SCF (Peprotech, Rocky Hill, N.J.). Cells were maintained at 0.1×10^6 cells/ml at 37° C. and 5% CO2. Cell suspensions were isolated via centrifugation (200 g, 5 min, at room temperature) and media was replaced every 3-7 days. For each well, 0.25×10^5 LAD2 cells were washed and resuspended in 90 μl HEPES buffer (10 mM, with 0.4% BSA, pH 7.4), and activated by adding 10 μl peptide solutions (PAMP-12 […], (RADA)4 (SEQ ID NO: 1) and (RADA)4-GG-(PAMP-12) (SEQ ID NO: 2)) in PBS (1×, pH 7.4) for 30 min at 37° C., the final concentrations of peptide are 0, 0.01, 0.1, 1, 10, 20, 50, 100 μM respectively. β-hex release was quantified through analysis of the hydrolysis of p-nitrophenyl N-acetyl-b-D-glucosamide (Sigma Aldrich, Oakville, ON, Canada) in 0.1 M sodium citrate buffer (pH 4.5) for both the supernatant and in total cell lysates solubilized with 0.01% Triton X-100 for 90 min at 37° C. The reaction was stopped by adding glycine buffer (pH 10.7). Read absorbance at 405 nm with reference filter at 620 nm. The percent-age of β-hex released into the supernatant was calculated by the β-hex contents of supernatant and cell lysate.

Regarding `CC(=O)N[C@@H](CCCNC(=N)N)C(=O)N[C@@H](C)C(=O)N[C@@H](CC(=O)O)C(=O)N[C@@H](C)C(=O)N[C@@H](CCCNC(=N)N)C(=O)N[C@@H](C)C(=O)N[C@@H](CC(=O)O)C(=O)N[C@@H](C)C(=O)N[C@@H](CCCNC(=N)N)C(=O)N[C@@H](C)C(=O)N[C@@H](CC(=O)O)C(=O)N[C@@H](C)C(=O)N[C@@H](CCCNC(=N)N)C(=O)N[C@@H](C)C(=O)N[C@@H](CC(=O)O)C(=O)N[C@@H](C)C(N)=O` [(RADA)4, RADARADARADARADA, reference compound], in the data set on LAD2 cells [1] (PAMP-12 10 μM, 0.5% w/v hydrogel matrices (pure (RADA)4 or 20% w/w (RADA)4-GG-(PAMP-12)), 4 h or 24 h), the “cytotoxicity to LAD2 cells (XTT)” value is “not cytotoxic”. Further, the “effect on LAD2 proliferation (XTT)” value in the data set with LAD2 cells [1] (same treatments, after 24 h incubation) is given as “no statistically significant effect”.
For the compound `CC(=O)N[C@@H](Cc1ccccc1)C(=O)N[C@@H](CCCNC(=N)N)C(=O)N[C@@H](CCCCN)C(=O)N[C@@H](CCCCN)C(=O)N[C@@H](Cc1c[nH]c2ccccc12)C(=O)N[C@@H](CC(N)=O)C(=O)N[C@@H](CCCCN)C(=O)N[C@@H](Cc1c[nH]c2ccccc12)C(=O)N[C@@H](C)C(=O)N[C@@H](CC(C)C)C(=O)N[C@@H](CO)C(=O)N[C@@H](CCCNC(=N)N)C(N)=O` [PAMP-12, Ac-FRKKWNKWALSR-CONH2, reference compound], the results for the “degranulation of LAD2 (β-hex release)” value in the data set with LAD2 cells [2] (0.29 mM PAMP-12 solution in insert) and in the data set on LAD2 cells [2] (1.46 mM PAMP-12 solution in insert) were 65.4±2.6% and 69.5±1.2%, respectively. The “effect on LAD2 proliferation (XTT)” value in the data set with LAD2 cells [3] was “no statistically significant effect”. The “TPSAB1 expression level, normalized to ACTB” value in the data set with TPSAB1 (tryptase) mRNA was found to be 224.2±9.920 percentage. The “LAD2 degranulation (β-hex release)” value in the data set with LAD2 cells [4] (peptide solutions, various concentrations, compared with PBS) was “induced significant degranulation”. The “β-hex release (plateau)” value in the data set on LAD2 cells [4] (solution free peptide, 10 μM) is listed as around 75%.
